Results as given in US6974824B2, “Kappa opioid receptor ligands” (Research Triangle Institute, priority 2001, dated 2005).
Read-outs that look alike come from different tables or passages of the source.

Experiments:
[1] = target: delta opioid receptor (UniProt P33533); experiment: Radioligand competitive binding, [3H]DADLE
[2] = target: mu opioid receptor (Cavia porcellus, UniProt A0ACM8Q262); experiment: Inhibition of DAMGO-stimulated [35S]GTP-γ-S binding in guinea pig caudate; assay type: biochemical; settings: read-out: Apparent Functional Ki (nM ± SD) μ DAMGO
[3] = target: T1, delta opioid receptor (Cavia porcellus, UniProt A0A286XTF2); settings: read-out: Apparent Functional Ki (nM ± SD) δ DADLE; [35S]GTP-γ-S, guinea pig caudate, SNC-80-stimulated (footnote b)
[4] = target: cloned human kappa opioid receptor (Homo sapiens, UniProt P41145); experiment: Inhibition of U69,593-stimulated [35S]GTP-γ-S binding in cloned human opioid receptors; settings: cloned human functional assay versus binding assay
[5] = target: T1, delta opioid receptor; experiment: biochemical
[6] = target: T2, kappa opioid receptor (Cavia porcellus, UniProt P41144); experiment: Inhibition of U69,593-stimulated [35S]GTP-γ-S binding in guinea pig caudate
[7] = target: mu opioid receptor (UniProt P33535); experiment: Radioligand competitive binding, [3H]DAMGO; settings: read-out: K1 (nM ± SD) μ [3H]DAMGO
[8] = target: T2, kappa opioid receptor; experiment: Radioligand competitive binding, [3H]U69,593; settings: for Ki: read-out: K1 (nM ± SD) κ [3H]U69,593, radioligand binding, [3H]U69,593
[9] = test system: kappa opioid receptor; experiment: Radioligand competitive binding, [3H]U69,593; settings: ratio of binding Ki values, Table 1
[10] = read-out: K1 (nM ± SD) δ [3H]DADLE; radioligand binding, [3H]DADLE
[11] = radioligand binding, [3H]DADLE; read-out: K1 (nM ± SD) δ [3H]DADLE

Row | Structure (SMILES) | Ki [1, 10] [nM] | Ki [1, 11] [nM] | Ki [7] [nM] | Ki [8] [nM] | δ/κ [9] | μ/κ [9] | also measured
1 | Oc1ccc2c3c1O[C@H]1c4[nH]c5c(c4C[C@@]4(O)[C@@H](C2)N(CC2CC2)CC[C@]314)C[C@@]1(O)[C@H]2Cc3ccc(O)c4c3[C@@]1(CCN2CC1CC1)[C@H]5O4 [6, nor-BNI, nor-binaltorphimine, reference compound] | 86 |  |  |  |  |  | Ki [2]: 16.7 nM; Ki [3]: 10.2 nM
2 | CC(C)[C@@H](CN1CC[C@@](C)(c2cccc(O)c2)[C@@H](C)C1)NC(=O)[C@H]1Cc2ccc(O)cc2CN1 [Compound 14, (3R)-7-Hydroxy-N-((1S)-1-{[(3R,4R)-4-(3-hydroxyphenyl)-3,4-dimethyl-1-piperidinyl]methyl}-2-methylpropyl)-1,2,3,4-tetrahydro-3-isoquinolinecarboxamide] |  | 301 ± 50 | 3.73 ± 0.17 |  |  |  | improvement in kappa receptor Ki compared with the binding assay [4]: 53 fold; Ki [5]: > 300 nM; Ki [6]: 0.02 nM; Ki [2]: 2.16 ± 0.75 nM
3 | CC(C)[C@@H](CN1CC[C@@](C)(c2cccc(O)c2)[C@@H](C)C1)NC(=O)[C@@H]1Cc2ccc(O)cc2CN1 [Compound 15, (3S)-7-Hydroxy-N-((1S)-1-{[(3R,4R)-4-(3-hydroxyphenyl)-3,4-dimethyl-1-piperidinyl]methyl}-2-methylpropyl)-1,2,3,4-tetrahydro-3-isoquinolinecarboxamide] |  | > 4900 | 596 ± 29 | 9.8 ± 1.6 |  |  | 
4 | CC(C)[C@@H](CN1CC[C@@](C)(c2cccc(O)c2)[C@@H](C)C1)NC(=O)[C@H]1Cc2ccccc2CN1 [Compound 16, (3R)-N-((1S)-1-{[(3R,4R)-4-(3-Hydroxyphenyl)-3,4-dimethyl-1-piperidinyl]methyl}-2-methylpropyl)-1,2,3,4-tetrahydro-3-isoquinolinecarboxamide] | > 4900 |  | 775 ± 75 | 2.1 | >2333 | 369 | 
5 | CC(C)[C@@H](CN1CC[C@@](C)(c2cccc(O)c2)[C@@H](C)C1)NC(=O)[C@H]1Cc2ccc(O)cc2CN1C(=O)CN(C)C [Compound 17, (3R)-2-(N,N-Dimethylglycyl)-7-hydroxy-N-((1S)-1-{[(3R,4R)-4-(3-hydroxyphenyl)-3,4-dimethyl-1-piperidinyl]methyl}-2-methylpropyl)-1,2,3,4-tetrahydro-3-isoquinolinecarboxamide] | > 3400 |  | 164 ± 10.5 | 15 ± 1.2 | >219 | 11 | 
6 | CC(C)[C@@H](CN1CC[C@@](C)(c2cccc(O)c2)[C@@H](C)C1)NC(=O)[C@@H]1Cc2ccc(O)cc2CN1C [Compound 18, (3S)-7-Hydroxy-N-((1S)-1-{[(3R,4R)-4-(3-hydroxyphenyl)-3,4-dimethyl-1-piperidinyl]methyl}-2-methylpropyl)-2-methyl-1,2,3,4-tetrahydro-3-isoquinolinecarboxamide] | 616 ± 59 |  | 37 ± 1.4 |  | 11622 | 700 | potency relative to the reference compound nor-BNI (6) ([8]; opioid receptor binding data, kappa): 20 fold
7 | CC(C)[C@@H](CN1CC[C@@](C)(c2cccc(O)c2)[C@@H](C)C1)NC[C@H]1Cc2ccc(O)cc2CN1 [Compound 19, (3R)-3-{[((1S)-1-{[(3R,4R)-4-(3-Hydroxyphenyl)-3,4-dimethyl-1-piperidinyl]methyl}-2-methylpropyl)amino]methyl}-1,2,3,4-tetrahydro-7-isoquinolinol] |  |  |  | 0.63 ± 0.05 |  |  | Ki ([1]; read-out: K1 (nM ± SD) δ [3H]DADLE): 5570 ± 713 nM
8 | CC(C)[C@@H](CN1CC[C@@](C)(c2cccc(O)c2)[C@@H](C)C1)NC[C@H]1Cc2ccc(O)cc2CN1C [Compound 20, (3R)-3-{[((1S)-1-{[(3R,4R)-4-(3-Hydroxyphenyl)-3,4-dimethyl-1-piperidinyl]methyl}-2-methylpropyl)amino]methyl}-2-methyl-1,2,3,4-tetrahydro-7-isoquinolinol] |  | 2230 ± 187 | 59 ± 2.5 | 0.55 ± 0.04 | 4056 | 107 | 
9 | CC(C)[C@@H](CN1CC[C@](C)(c2cccc(O)c2)[C@H](C)C1)NC(=O)[C@H]1Cc2ccc(O)cc2CN1 [Compound 21, (3R)-7-Hydroxy-N-((1S)-1-{[(3S,4S)-4-(3-hydroxyphenyl)-3,4-dimethyl-1-piperidinyl]methyl}-2-methylpropyl)-1,2,3,4-tetrahydro-3-isoquinolinecarboxamide] |  | 144 ± 15 | 138 ± 8 | 17.5 ± 2.5 |  |  | 
